Results: patent US20160340659A1, “ACTIN BINDING PEPTIDES AND COMPOSITIONS COMPRISING SAME FOR INHIBITING ANGIOGENESIS AND TREATING MEDICAL CONDITIONS ASSOCIATED WITH SAME” (YISSUM RESEARCH AND DEVELOPMENT COMPANY OF THE HEBREW …, priority 2014, published 2016)
“Also recorded” adds a separate entry of the source. Where no end group is shown, it is not given here.

Key:
[1] = target: T1, actin (Oryctolagus cuniculus, UniProt P68135); assay: Actin binding solid phase assay; conditions: immobilized actin, 0-500 ng/100 μl well
Method: 96-well plates (MaxiSorp® flat-bottom 96-well plate, Fisher Scientific Inc., Fair Lawn, N.J.) were coated with 500 ng actin in 100 μl carbonate-bicarbonate buffer (pH 9.5) for 1 h at 37° C. The plate was washed once with TBS and then blocked with 3% BSA in 200 μl TBS buffer at 37° C., for 1 h. Wells were then washed once with 250 μl TBS. trT2-49, trT2-49m or each of the 29 peptides were added at 1:2 dilutions in 100 μl TBS, starting from 500 ng/well, incubated for 1 h at 37° C. and then washed three times with TBS containing 0.1% Tween-20 (TBST). Each well was then treated with 100 μl rabbit anti-trT2-49 diluted 1:500 in TBS and incubated for 1 h at 37° C. The wells were washed three times with TBST and then incubated with 100 μl goat anti-rabbit IgG-HRP (Jackson ImmunoResearch, West Grove, Pa.) diluted 1:10,000 in TBS, for 1 h at 37° C. Wells were then washed twice with TBST, and once with TBS before 100 μl substrate (1-step Ultra TMB-ELISA, Pierce, Fisher Scientific Inc.) were added. Absorbance at 655 nm was measured 10 min thereafter using a Power Wave 200 Microplate Scanning Spectrophotometer (Bio-Tek Instrument, Winooski, Vt.). Affinity was evaluated by double reciprocal plotting.

[2] = target: T1, actin; assay: Surface plasmon resonance (BIAcore) of actin binding; conditions: actin on CM5 chip, 25° C.
Method: SPR was performed on a BIAcore 3000 instrument (BIAcore, Uppsala, Sweden). Actin was diluted in 100 mM CH3COONa pH 4.6 to a final concentration of 20 μg/ml (200 μl total) resulting in ˜1 ng immobilized actin on a CM5 BIAcore sensor chip (GE Healthcare Bio-Sciences AB) using the standard BIAcore amine coupling chemistry protocol. The CM5 chip allows four separate flow cells to be operated in the BIAcore 3000 instrument used in these experiments. Coupling is achieved by activating the surface of the sensor chips with equal volumes of 50 mM N-hydroxysuccimide (NHS)/200 mM Nethyl-N-(3-[…])-carboiimide (EDC) (BIAcore, AB, Uppsala, Sweden) to form activated carboxyl groups. An actin solution […] was run over the chip for 5 min at a rate of 10 μl/min, allowing the amine groups on the protein to react with the activated esters. In the final stage of immobilization, the surface was blocked by 1M ethanol amine, pH 8.0. The binding assay was performed by injecting the hRNASET2, trT2-49, trT2-49m or peptides solutions in running buffer (HBS—10 mM Hepes, 150 mM Sodium Chloride, 3 mM EDTA, 0.005% Polysorbate 20) at 5 different concentrations at a flow rate of 10 μl/min at 25° C. Injections were performed simultaneously over all four channels and blank surface (a plain dextran matrix, channel 1) was used as control. The net signal was obtained by subtracting the blank signal from the signal of the immobilized surface. The association phase for protein or peptides binding to actin was followed for 4 min, and dissociation phases were monitored for 3 min. Surface regeneration between consecutive binding cycles included a 1 min injection of 1 mM NaOH. The response was monitored as a function of time (sensorgram) at 25° C. Multi-concentration data were globally fit using BIA evaluation 3.2 software.
The strength of a two molecule interaction is characterized by the equilibrium dissociation (binding) constant KD=[P][L]/[PL], where [P] is the concentration of free protein (or peptide), [L] the concentration of ligand and [PL] the concentration of the complex. […]

[3] = tested on: HUVEC; assay: HUVEC tube formation assay on Matrigel; assay type: cell-based, human; conditions: peptides at 2 μM, compared to Control; for inhibition of VEGF-induced tube formation: 1 μg/ml VEGF; for inhibition of angiogenin-induced tube formation: 1 μg/ml angiogenin
Method: FIGS. 6A-6D illustrate in-vitro inhibition of angiogenesis in the HUVEC model by T2 peptides. HUVEC cells plated on Matrigel™ were exposed to 2 μM of T2 peptides A103-Q159 (SEQ ID NO: 60), K108-K133 (SEQ ID NO: 57) or K108-L123 (SEQ ID NO: 67), in addition to 1 μg/ml of angiogenin or VEGF as the angiogenic agent, as indicated. Control wells received PBS. FIG. 6B-Results were assessed by imaging software, and quantified, and expressed relative to tube formation with angiogenin or VEGF alone (100%) Column 1=angiogenin, column 2=angiogenin+SEQ ID NO: 60, column 3=angiogenin+SEQ ID NO: 57, column 4=angiogenin+[…], Column 5=VEGF, column 6=VEGF+SEQ ID NO: 60, column 7=VEGF+SEQ ID NO: 57, column 8=VEGF+[…]. FIGS. 6C and 6D illustrate the inhibitory effect of truncated human T2 polypeptide trT2-49m (SEQ ID NO: 129) on angiogenin and VEGF induced HUVEC tube formation. Note the significant inhibition of HUVEC tube formation by all of the T2 peptides assayed, and in particular, K108-K133 (SEQ ID NO: 57);
HUVEC (CC-2519)(fresh or commercially provided) are maintained in M199 rrrediurn supplemented with 20% FCS, 1% glutamine, 1% antibiotic-antimycotic solution, ECGF, and heparin, plated in a 96-well plate (14×10^3 cells/well) previously coated with growth factor-depleted Matrigel™ (BD Biosciences), in M199 medium containing 5% FCS and 0.005% ECGF. The wells are supplemented with candidate T2 RNase peptides or PBS, and angiogenic growth factors (1 μg/ml angiogenin, bFGF or VEGF) to a final volume of 120 pl. Plates are incubated (overnight), photographed and the extent of tube formation (angiogenesis) assessed.

[4] = tested on: chick Chorio-Allantoic Membrane (CAM); assay: Ex ovo CAM angiogenesis assay; assay type: in vivo, chicken; conditions: 3 μg on paper disk daily for four days from day 8; compared to PBS control
Method: In this assay, in-vivo angiogenesis is assessed on live chick embryos grown in petri dishes. Fertilized eggs are cracked into a petri dish after a few (e.g. 3) days incubation at appropriate temperature (e.g. 37° C.) and humidity. In the following days, the embryos developed a vascular network, which can then easily be exposed to any treatment or combination of treatments, for example, via delivery onto absorbent disks placed on/about the developing vascular regions. Angiogenesis is scored by periodically (e.g. 1×/day, 2×/day, 1×/2 days, 1×/4 days, etc) counting the number of blood vessels around the disk.
Fertilized chicken eggs were incubated horizontally at 37° C. and humidity of 60-62% and cracked into Petri dishes at embryonic day 4. Incubation was continued under the same conditions. […] Treatment was given every day for four days, then, the number of blood vessels around the treated disks was counted.

“ALNSQKKYFGRSLELYRELDLNSVLLKLGIKPSINYYQVADFKDALARVYGVIPKIQ [SEQ ID NO: 60]” was tested, and the “actin binding in solid-phase assay” value ([1]; listed as A103-Q159) was “most effective actin binding peptides amongst the 29 candidate peptides; also recorded: effective and concentration-dependent binding of actin”, the kon ([2]; read-out: Ka × 10^3) was 1060 M⁻¹ s⁻¹ and the “inhibition of VEGF-induced tube formation” value [3] was ~40%. For the same sequence, the “inhibition of angiogenin-induced tube formation” value [3] was ~40% and the “inhibition of angiogenesis (number of blood vessels around disk)” value [4] was “effective in inhibiting angiogenesis”.
With “KKYFGRSLELYRELDLNSVLLKLGIK [SEQ ID NO: 57, 26-amino acid peptide representing amino acids 108-133 of RNASET2]” the “actin binding in solid-phase assay” value ([1]; listed as K108-K133) was “most effective actin binding peptides amongst the 29 candidate peptides; also recorded: effective and concentration-dependent binding of actin”, the “Ka × 10^3” value [2] was 3.32 ×10^3 1/Ms and the “inhibition of VEGF-induced tube formation” value [3] was ~75%. For the same sequence, the “inhibition of angiogenin-induced tube formation” value [3] was ~50% and the “inhibition of angiogenesis (number of blood vessels around disk)” value [4] was “effective in inhibiting angiogenesis”.
